What was measured:
[1] = test system: ConA-induced acute immune liver injuries; test: ConA-induced mouse acute immune liver injury model; type: in vivo; settings: mouse serum; for ALT (U/L) / AST (U/L) / LDH (U/L): 200 mg/kg intragastric once a day x3, 20 mg/kg ConA tail vein, n = 10; for ALT reduction percent (%) / AST reduction percent (%) / LDH reduction percent (%): 200 mg/kg, versus ConA model group
Description: 1. Method for Establishment of a ConA-Induced Mouse Acute Immune Liver Injury Model and Method of Administration SPF-grade male ICR mice (20-22 g), after acclimatization, were randomly divided into 5 groups: a blank control group, a ConA-induced model group, a 200 mg/kg (+)IMM-H014 group, a 200 mg/kg (−)IMM-H014 group, and a 200 mg/kg (±)IMM-H014 group, 10 mice in each group. Each administration group was intragastrically administrated once a day, and it was totally administrated three times. The blank control group and the model group were intragastrically administrated with the same dose of physiological saline. At 2 hours after the last administration, the mice in each group except the blank control group, were injected once with 20 mg/kg ConA in the tail vein, and each administration dose was 10 ml/kg. The mice were in fasting but not in water deprivation for 16 h and then the animals waited for further treatment. 2. Determination of Biochemical Indexes The mice were decapitated and blood was taken, and the blood samples were kept still at room temperature for 2 h and centrifuged at 4000 rpm for 10 min, to separate the serum. The ALT, AST and LDH contents in the serum were detected with a full-automatic biochemical analyzer. The data each were presented as a number mean±standard deviation (x±SD).

[2] = test system: ethionine-induced non-alcoholic fatty liver; test: Ethionine-induced mouse non-alcoholic fatty liver model; type: in vivo; settings: for TC (mmol/gprot): mouse liver tissue cholesterol; for TC (mmol/gprot) / TG (mmol/gprot): 200 mg/kg intragastric once a day x3, 250 mg/kg ethionine; for TG (mmol/gprot): mouse liver tissue triglyceride; for Percent TG reduction (%) / TC reduction percent (%): mouse liver tissue, 200 mg/kg, versus model group
Description: 1. Method for Establishment of an Ethionine-Induced Mouse Non-Alcoholic Fatty Liver Model and Method of Administration SPF-grade male ICR mice (20-22 g), after acclimatization, were randomly divided into 5 groups: a blank control group, an ethionine-induced model group, a 200 mg/kg (+)IMM-H014 group, a 200 mg/kg (−)IMM-H014 group, and a 200 mg/kg (±)IMM-H014 group, 5 mice in each group. Three days before the establishment of the models, each administration group was intragastrically administrated once per day, and it was totally administrated three times. The animals in the blank control group and the model group were intragastrically administrated with the same dose of physiological saline. Each administration dose was 10 mL/kg. One hour after the last administration, the mice in each group were intragastrically administrated with 250 mg/kg ethionine once. The administration dose was 20 ml/kg. The mice were in fasting but not in water deprivation for 24 h and then the animals waited for further treatment. 2. Determinations of the Contents of Triglyceride and Cholesterol in Liver Tissues The mice were subjected to thoracotomy to take out the livers which were washed with physiological saline at 4° C. A part of the liver tissues were prepared into a 10% liver tissue homogenate with a lysate and an electric homogenizer, wherein one part was measured according to the measurement methods of a triglyceride kit and a cholesterol kit to determine the triglyceride and cholesterol therein, and the other part was measured with a BCA protein quantification kit to determine the content of proteins therein. The triglyceride and cholesterol in the liver tissues were subjected to protein corrections. By adopting SPSS software, the data each were presented as a number mean±standard deviation (x±SD).

COC(=O)c1cc(OC)c2c(c1-c1c(CN3CCOCC3)cc(OC)c3c1OCO3)OCO2 (racemic) [(±)IMM-H014]
ALT (U/L) [1]: 107.0 ± 108.7 U/L
AST (U/L) [1]: 725.0 ± 417.3 U/L
LDH (U/L) [1]: 3466.7 ± 1772.4 U/L
ALT reduction percent (%) [1]: 88.6%
AST reduction percent (%) [1]: 22.2%
LDH reduction percent (%) [1]: 6.4%
TC (mmol/gprot) [2]: 0.063 ± 0.013 mmol/gprot
TG (mmol/gprot) [2]: 0.110 ± 0.005 mmol/gprot
Percent TG reduction (%) [2]: 56.6%
TC reduction percent (%) [2]: 30.0%

COC(=O)c1cc(OC)c2c(c1-c1c(CN3CCOCC3)cc(OC)c3c1OCO3)OCO2 [(+)IMM-H014]
ALT (U/L) [1]: 44.4 ± 29.1 U/L
AST (U/L) [1]: 514.3 ± 310.7 U/L
LDH (U/L) [1]: 2680.0 ± 1190.8 U/L
ALT reduction percent (%) [1]: 95.3%
AST reduction percent (%) [1]: 44.8%
LDH reduction percent (%) [1]: 27.6%
TC (mmol/gprot) [2]: 0.065 ± 0.022 mmol/gprot
TG (mmol/gprot) [2]: 0.235 ± 0.070 mmol/gprot
Percent TG reduction (%) [2]: 7.1%
TC reduction percent (%) [2]: 27.2%

COC(=O)c1cc(OC)c2c(c1-c1c(CN3CCOCC3)cc(OC)c3c1OCO3)OCO2 [(−)IMM-H014]
ALT (U/L) [1]: 25.6 ± 17.4^###& U/L
AST (U/L) [1]: 252.9 ± 233.5^##& U/L
LDH (U/L) [1]: 1690.0 ± 929.3^##& U/L
ALT reduction percent (%) [1]: 97.3%
AST reduction percent (%) [1]: 72.9%
LDH reduction percent (%) [1]: 54.4%
TC (mmol/gprot) [2]: 0.061 ± 0.013 mmol/gprot
TG (mmol/gprot) [2]: 0.154 ± 0.040 mmol/gprot
Percent TG reduction (%) [2]: 39.0%
TC reduction percent (%) [2]: 32.4%
Percent TG reduction (%) ([2]; listed as (−) IMM-H014, 200 mg/kg): 39.0%

Reference: patent US12630520B2, “Left-handed bicyclic morpholine and salt thereof, preparation method therefor, pharmaceutical composition, and use” (Institute of Materia Medica, Chinese Academy of Medical …, priority 2019, dated 2026)
